Experimental findings from US8802638B1, “Flavonoid treatment of glycogen synthase kinase-based disease” (University of South Florida, priority 2007, dated 2014) are described below.

The test system of one assay is PS1. As to the kind of experiment: Western blot of PS1 C-terminal fragment phosphorylation in SweAPP N2a cells. The class given is cell-based, murine. As to the method:
(§1) Cultured cells or mouse brain were lysed in ice-cold lysis buffer described above, and an aliquot corresponding to 50 μg of total protein was electrophoretically separated using 12% Tris-HCl or 16.5% Tris-tricine gels. Electrophoresed proteins were then transferred to PVDF membranes, washed in dH2O, and blocked for 1 hr at ambient temperature in Tris-buffered saline (TBS; Bio-Rad) containing 5% (w/v) non-fat dry milk. After blocking, membranes were hybridized for 1 hr at ambient temperature with various primary antibodies. Membranes were then washed 3× for 5 min each in dH2O and incubated for 1 hr at ambient temperature with the appropriate HRP-conjugated secondary antibody (1:1,000). All antibodies were diluted in TBS containing 5% (w/v) of non-fat dry milk. Blots were developed using the luminol reagent (Pierce Biotechnology). Densitometric analysis was done as previously described using a FluorS Multiimager with Quantity One™ software. Immunoprecipitation was performed for detection of sAPP-α, sAPP-β and Aβ by incubating 200 μg of total protein of each sample with various sequential combinations of 6E10 (1:100) and/or 22C11 (1:100) antibodies overnight with gentle rocking at 4° C., and 10 μL of 50% protein A-Sepharose beads were then added to the sample (1:10; Sigma) prior to gentle rocking for an additional 4 hrs at 4° C. Following washes with 1× cell lysis buffer, samples were subjected to Western blot as described above. Antibodies used for Western blot included the APP-carboxyl-terminal antibody (1:50)), amino-terminal APP antibody (clone 22C11), or 6E10 (1:1,000), or actin antibody (1:1,500; as an internal reference control). γ-secretase activity was quantified in cell lysates using available kits (R&D Systems, Minneapolis, Minn.), based on secretase-specific peptides conjugated to fluorogenic reporter molecules.
The two bands of highest molecular weight, approximately 20 kD and 18 kD in size, represent phosphorylated PS1 CTFs with a smaller 16 kD band representing the more common CTF product indicative of PS1 endoproteolytic cleavage.
To confirm that the 20 kD and 18 kD bands were phosphorylated PS1 isoforms, SweAPP N2a cells were treated with luteolin (20 μM) prior to lysis and cell lysates incubated with calf intestine alkaline phosphatase (CIAP) (Fermentas, Hanover, Md.), to dephosphorylate any potential phosphorylated proteins, to eliminate skewing of electrophorectic mobilities. Following 30 minutes of incubation, the 20 kD band is not evident in the CIAP treated lysates, seen in FIGS. 21(A) through 22, and the 18 kD band reduced while endogenous CTF, 16 kD, appears to accumulate. When compared to lysates incubated with only reaction buffer, phosphorylated residues decrease in a time dependent manner, shown by the 20 kD CTF:16 kD CTF. […] Luteolin affects PS1 phosphorylation and may indicate a means by which γ-secretase activity may be regulated.
To determine if this phenomenon was specifically attributable to luteolin treatment or more generally in regards to GSK-3 inhibition, SweAPP N2a cells were treated with a range of doses of the GSK-3 inhibitor SB-415286 (BIOMOL®, Plymouth Meeting, Pa.). […] FIG. 24(B). GSK-3α and β was successfully knocked-down (>70%, data not shown) with siRNA in SweAPP N2a cells, substantiating the role of GSK-3α in this luteolin-mediated PS1 processing. […]
For orientation: A western blot detects proteins with antibodies after separation by electrophoresis.

In a further assay the test system is PS1-APP association. As to the kind of experiment: PS1-APP association, immunoprecipitation/Western blot in SweAPP N2a cells. The class given is cell-based, murine. The settings on record: 20 μM for 4 hrs or siRNA transfection. As to the method: as §1
Cell lysates of luteolin-treated SweAPP N2a cells were immunoprecipitated by PS1 antibody and probed for APP to clarify how phospho-PS1 CTF isoforms may regulate γ-secretase activity, seen in FIGS. 26(A) through 27(B). As illustrated in FIGS. 26(A) and (B), the APP-PS1 association is disrupted by luteolin, SB-415286 treatment, and GSK-3α siRNA. […] Thus, GSK-3α or, more specifically, downstream phosphorylation of the PS1 CTF plays an essential role in regulating the association of γ-secretase complex with its APP substrate.

SMILES strings stand for the structures.

Take `O=c1cc(-c2ccc(O)c(O)c2)oc2cc(O)cc(O)c12` [luteolin]: the “PS1 CTF phosphorylation (phospho-PS1 CTF to PS1 CTF ratio)” value in the assay on PS1 is given as “PS1 CTF phosphorylation increases”. Also, in the assay with PS1 (range of doses, 4 hrs), the “full-length PS1 or PS1 NTF protein levels” value is listed as “no significant effect”. The “ratio of APP to actin (full-length APP levels)” value with PS1-APP association (6E10 Western blot of lysates) is “no significant changes”. Moreover, the APP-PS1 association result in the assay with PS1-APP association (IP with anti-PS1 CTF, 6E10 blot) is reported as “disrupted”.
